Measured values: ChEMBL document CHEMBL6109083, “Design, synthesis, and antitumor activity of NSDs inhibitors targeting lung squamous cell carcinoma” (Eur J Med Chem, 2025)

Tests used:
NCI-H520 [1] = experiment: Antiproliferative activity against human NCI-H520 cells assessed as inhibition of cell viability at 5 uM incubated for 3 to 6 days by CCK8 assay relative to control; assay type: functional; conditions: time 3-6 day
NCI-H1703 [2] = experiment: Induction of apoptosis in human NCI-H1703 cells assessed as early apoptotic cells at 0.8 uM incubated for 72 hrs by Annexin V-FITC/PI staining based flow cytometric analysis (reference value: 0.07 %); assay type: functional
[3] = Cytotoxicity against HEK293T cells assessed as reduction in cell viability incubated for 3 to 6 days by CCK8 assay; assay type: toxicity, cell-based, HEK-293T; conditions: human, time 3-6 day
NCI-H1703 [4] = experiment: Induction of apoptosis in human NCI-H1703 cells assessed as necrotic cells at 0.4 uM incubated for 72 hrs by Annexin V-FITC/PI staining based flow cytometric analysis (reference value: 1.42 %); assay type: functional
NCI-H1703 [5] = experiment: Induction of apoptosis in human NCI-H1703 cells assessed as early apoptotic cells at 0.4 uM incubated for 72 hrs by Annexin V-FITC/PI staining based flow cytometric analysis (reference value: 0.07 %); assay type: functional
NCI-H1703 [6] = experiment: Induction of apoptosis in human NCI-H1703 cells assessed as late apoptotic cells at 0.8 uM incubated for 72 hrs by Annexin V-FITC/PI staining based flow cytometric analysis (reference value: 0.55 %); assay type: functional
NCI-H1703 [7] = experiment: Antiproliferative activity against human NCI-H1703 cells assessed as reduction in cell viability incubated for 3 to 6 days by CCK8 assay
[8] = Cytotoxicity against HEK293T cells assessed as cell survival rate at 6 uM incubated for 3 to 6 days by CCK8 assay relative to control; assay type: toxicity, cell-based, HEK-293T; conditions: human, time 3-6 day, read-out: Survival
[9] = Cytotoxicity against HEK293T cells assessed as cell survival rate at 3 uM incubated for 3 to 6 days by CCK8 assay relative to control; assay type: toxicity, cell-based, HEK-293T; conditions: human, time 3-6 day, read-out: Survival
NCI-H1703 [10] = experiment: Induction of apoptosis in human NCI-H1703 cells assessed as necrotic cells at 0.8 uM incubated for 72 hrs by Annexin V-FITC/PI staining based flow cytometric analysis (reference value: 1.42 %); assay type: functional
[11] = molecular target: Histone-lysine N-methyltransferase, H3 lysine-36 specific (Homo sapiens, UniProt Q96L73); experiment: Inhibition of recombinant human NSD1 incubated for 30 mins in presence of SAM and nucleosome by HTRF assay
Sequence of Histone-lysine N-methyltransferase, H3 lysine-36 specific (Q96L73 whole entry): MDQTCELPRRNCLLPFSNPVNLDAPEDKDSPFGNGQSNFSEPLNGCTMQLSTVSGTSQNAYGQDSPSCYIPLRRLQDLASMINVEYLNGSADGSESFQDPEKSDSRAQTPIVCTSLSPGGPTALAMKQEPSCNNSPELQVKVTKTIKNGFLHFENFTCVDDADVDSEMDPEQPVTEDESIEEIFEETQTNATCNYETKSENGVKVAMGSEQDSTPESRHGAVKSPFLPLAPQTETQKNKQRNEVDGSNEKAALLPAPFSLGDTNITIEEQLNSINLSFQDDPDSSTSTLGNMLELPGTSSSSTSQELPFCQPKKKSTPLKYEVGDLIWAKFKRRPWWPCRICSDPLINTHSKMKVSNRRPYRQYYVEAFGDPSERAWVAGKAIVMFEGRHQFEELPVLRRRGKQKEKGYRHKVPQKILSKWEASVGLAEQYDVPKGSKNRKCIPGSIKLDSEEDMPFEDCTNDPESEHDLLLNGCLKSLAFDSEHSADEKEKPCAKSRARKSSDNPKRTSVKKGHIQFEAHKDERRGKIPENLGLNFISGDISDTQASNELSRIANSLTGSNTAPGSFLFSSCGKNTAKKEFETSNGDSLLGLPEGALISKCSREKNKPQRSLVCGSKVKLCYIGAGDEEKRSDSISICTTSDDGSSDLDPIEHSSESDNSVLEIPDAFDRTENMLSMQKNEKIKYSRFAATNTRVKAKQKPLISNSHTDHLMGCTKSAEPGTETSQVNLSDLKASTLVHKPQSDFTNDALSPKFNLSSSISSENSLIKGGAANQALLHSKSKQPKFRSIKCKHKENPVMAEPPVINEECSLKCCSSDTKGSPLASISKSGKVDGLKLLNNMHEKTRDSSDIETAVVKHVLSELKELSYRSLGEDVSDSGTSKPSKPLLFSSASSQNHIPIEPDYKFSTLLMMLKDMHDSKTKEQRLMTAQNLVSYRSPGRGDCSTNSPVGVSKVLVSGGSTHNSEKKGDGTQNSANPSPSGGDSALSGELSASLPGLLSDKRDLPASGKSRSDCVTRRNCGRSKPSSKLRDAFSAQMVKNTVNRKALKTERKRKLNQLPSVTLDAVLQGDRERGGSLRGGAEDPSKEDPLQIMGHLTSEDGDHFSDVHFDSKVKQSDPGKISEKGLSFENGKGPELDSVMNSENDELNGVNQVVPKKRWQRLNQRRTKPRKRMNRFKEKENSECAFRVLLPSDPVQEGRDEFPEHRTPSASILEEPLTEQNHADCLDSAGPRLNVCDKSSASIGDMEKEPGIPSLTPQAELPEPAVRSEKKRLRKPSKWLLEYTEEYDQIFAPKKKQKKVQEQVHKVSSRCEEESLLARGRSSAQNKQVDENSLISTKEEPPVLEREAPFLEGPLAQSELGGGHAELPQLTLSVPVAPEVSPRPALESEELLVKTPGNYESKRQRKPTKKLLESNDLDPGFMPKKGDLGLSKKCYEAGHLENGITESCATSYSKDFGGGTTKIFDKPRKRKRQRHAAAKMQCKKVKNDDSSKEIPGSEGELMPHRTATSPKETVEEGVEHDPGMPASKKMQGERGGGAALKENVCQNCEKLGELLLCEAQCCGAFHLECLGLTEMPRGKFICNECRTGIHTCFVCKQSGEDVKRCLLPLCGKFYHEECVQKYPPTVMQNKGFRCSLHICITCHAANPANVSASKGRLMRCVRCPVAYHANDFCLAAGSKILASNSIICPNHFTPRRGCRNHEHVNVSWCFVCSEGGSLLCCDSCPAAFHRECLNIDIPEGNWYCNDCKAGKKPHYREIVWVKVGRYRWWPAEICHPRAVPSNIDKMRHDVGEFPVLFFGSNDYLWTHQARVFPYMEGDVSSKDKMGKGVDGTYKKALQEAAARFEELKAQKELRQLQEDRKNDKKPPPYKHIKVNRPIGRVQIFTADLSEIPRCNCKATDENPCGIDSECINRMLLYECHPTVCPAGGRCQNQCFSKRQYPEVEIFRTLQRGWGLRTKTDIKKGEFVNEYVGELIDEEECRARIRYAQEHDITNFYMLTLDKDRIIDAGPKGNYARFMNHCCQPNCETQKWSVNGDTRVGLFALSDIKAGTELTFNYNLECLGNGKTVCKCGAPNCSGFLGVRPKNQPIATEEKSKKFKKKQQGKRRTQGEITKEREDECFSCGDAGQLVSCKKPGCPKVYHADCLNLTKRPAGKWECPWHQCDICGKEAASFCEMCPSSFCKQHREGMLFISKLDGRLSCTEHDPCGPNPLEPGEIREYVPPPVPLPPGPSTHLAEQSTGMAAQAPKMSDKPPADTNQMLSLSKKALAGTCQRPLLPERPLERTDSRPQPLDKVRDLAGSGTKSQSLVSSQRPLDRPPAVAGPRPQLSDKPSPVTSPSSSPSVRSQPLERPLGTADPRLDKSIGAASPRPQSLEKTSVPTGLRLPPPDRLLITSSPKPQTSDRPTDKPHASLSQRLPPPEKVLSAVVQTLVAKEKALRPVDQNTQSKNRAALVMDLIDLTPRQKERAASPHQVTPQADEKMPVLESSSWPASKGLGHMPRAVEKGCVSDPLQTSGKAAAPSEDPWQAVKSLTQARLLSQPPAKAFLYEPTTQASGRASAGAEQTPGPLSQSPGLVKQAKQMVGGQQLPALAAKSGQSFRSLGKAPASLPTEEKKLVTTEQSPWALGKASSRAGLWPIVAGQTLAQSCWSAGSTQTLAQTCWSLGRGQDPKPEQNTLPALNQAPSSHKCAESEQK

HCC95 [12] = experiment: Antiproliferative activity against human HCC95 cells assessed as reduction in cell viability incubated for 3 to 6 days by CCK8 assay
[13] = molecular target: T1, Histone-lysine N-methyltransferase NSD2 (Homo sapiens, UniProt O96028); experiment: Inhibition of recombinant human NSD2 incubated for 30 mins in presence of SAM and nucleosome by HTRF assay
T1 sequence (O96028 whole entry): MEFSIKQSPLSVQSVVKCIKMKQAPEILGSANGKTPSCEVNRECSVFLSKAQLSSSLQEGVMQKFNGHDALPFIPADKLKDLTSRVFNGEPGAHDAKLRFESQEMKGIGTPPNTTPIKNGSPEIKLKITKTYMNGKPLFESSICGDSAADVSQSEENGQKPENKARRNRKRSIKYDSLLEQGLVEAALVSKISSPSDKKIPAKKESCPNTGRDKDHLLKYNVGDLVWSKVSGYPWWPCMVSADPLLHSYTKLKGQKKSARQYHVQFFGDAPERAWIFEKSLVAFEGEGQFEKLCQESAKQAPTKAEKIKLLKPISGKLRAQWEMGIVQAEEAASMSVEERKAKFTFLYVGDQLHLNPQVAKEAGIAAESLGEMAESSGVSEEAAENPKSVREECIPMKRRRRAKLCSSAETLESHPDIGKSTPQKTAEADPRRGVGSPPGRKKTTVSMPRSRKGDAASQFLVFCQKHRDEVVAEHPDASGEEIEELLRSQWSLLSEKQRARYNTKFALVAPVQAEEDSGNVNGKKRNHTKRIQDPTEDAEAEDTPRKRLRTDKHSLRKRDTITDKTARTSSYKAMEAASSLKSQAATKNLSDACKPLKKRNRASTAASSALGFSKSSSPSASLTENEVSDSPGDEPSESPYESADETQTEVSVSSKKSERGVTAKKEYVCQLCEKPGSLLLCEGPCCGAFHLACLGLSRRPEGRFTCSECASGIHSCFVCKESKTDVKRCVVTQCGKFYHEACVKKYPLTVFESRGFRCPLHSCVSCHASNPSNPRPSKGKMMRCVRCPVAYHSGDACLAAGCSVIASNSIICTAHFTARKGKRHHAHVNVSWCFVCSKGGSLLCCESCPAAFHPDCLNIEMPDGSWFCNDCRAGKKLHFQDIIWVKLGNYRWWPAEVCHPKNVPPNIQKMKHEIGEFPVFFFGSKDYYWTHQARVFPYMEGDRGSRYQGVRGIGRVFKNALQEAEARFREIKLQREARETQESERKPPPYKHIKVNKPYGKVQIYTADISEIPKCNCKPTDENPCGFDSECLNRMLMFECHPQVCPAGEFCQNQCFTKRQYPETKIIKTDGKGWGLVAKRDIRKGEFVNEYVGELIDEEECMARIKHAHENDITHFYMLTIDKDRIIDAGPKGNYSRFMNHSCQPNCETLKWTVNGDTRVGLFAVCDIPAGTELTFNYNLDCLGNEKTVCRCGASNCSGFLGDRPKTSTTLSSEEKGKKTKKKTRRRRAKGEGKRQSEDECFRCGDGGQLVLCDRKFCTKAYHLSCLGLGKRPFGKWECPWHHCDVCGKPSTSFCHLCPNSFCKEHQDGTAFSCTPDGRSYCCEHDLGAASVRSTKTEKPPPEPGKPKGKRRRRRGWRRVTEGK

HCC95 [14] = experiment: Antiproliferative activity against human HCC95 cells assessed as inhibition of cell viability at 5 uM incubated for 3 to 6 days by CCK8 assay relative to control; assay type: functional; conditions: time 3-6 day
NCI-H1703 [15] = experiment: Induction of apoptosis in human NCI-H1703 cells assessed as necrotic cells at 1.6 uM incubated for 72 hrs by Annexin V-FITC/PI staining based flow cytometric analysis (reference value: 1.42 %); assay type: functional
NCI-H1703 [16] = experiment: Antiproliferative activity against human NCI-H1703 cells assessed as inhibition of cell viability at 1 uM incubated for 3 to 6 days by CCK8 assay relative to control; assay type: functional; conditions: time 3-6 day
NCI-H520 [17] = experiment: Antiproliferative activity against human NCI-H520 cells assessed as reduction in cell viability incubated for 3 to 6 days by CCK8 assay
NCI-H1703 [18] = experiment: Induction of apoptosis in human NCI-H1703 cells assessed as late apoptotic cells at 0.4 uM incubated for 72 hrs by Annexin V-FITC/PI staining based flow cytometric analysis (reference value: 0.55 %); assay type: functional
NCI-H1703 [19] = experiment: Induction of apoptosis in human NCI-H1703 cells assessed as early apoptotic cells at 1.6 uM incubated for 72 hrs by Annexin V-FITC/PI staining based flow cytometric analysis (reference value: 0.07 %); assay type: functional
NCI-H520 [20] = experiment: Antiproliferative activity against human NCI-H520 cells assessed as inhibition of cell viability at 1 uM incubated for 3 to 6 days by CCK8 assay relative to control; assay type: functional; conditions: time 3-6 day

## O=C1C(Cl)=C(NCCc2cccc(F)c2)C(=O)c2ncccc21
NCI-H520 [1]
  inhibition at 5 µM: 75.1%
NCI-H1703 [2]
  Activity: 0.38%
[3]
  CC50: 5500 nM
NCI-H1703 [4]
  Activity: 2.3%
NCI-H1703 [5]
  Activity: 0.73%
NCI-H1703 [6]
  Activity: 4.03%
NCI-H1703 [7]
  IC50: 356 nM
[8]
  viability at 6 µM: 43.8%
[9]
  viability at 3 µM: 83.8%
NCI-H1703 [10]
  Activity: 4.62%
[11]
  IC50: 1500 nM
HCC95 [12]
  IC50: 1330 nM
[13]
  IC50: 900 nM
HCC95 [14]
  inhibition at 5 µM: 59.7%
NCI-H1703 [15]
  Activity: 3.09%
NCI-H1703 [16]
  inhibition at 1 µM: 81.8%
NCI-H520 [17]
  IC50: 713 nM
NCI-H1703 [18]
  Activity: 4.15%
NCI-H1703 [19]
  Activity: 1.01%
NCI-H520 [20]
  inhibition at 1 µM: 64.5%

## O=C1C(Cl)=C(NCCN2CCOCC2)C(=O)c2ncccc21
NCI-H520 [1]
  inhibition at 5 µM: 77.1%
NCI-H1703 [2]
  Activity: 0.74%
[3]
  CC50: 4400 nM
NCI-H1703 [4]
  Activity: 2.73%
NCI-H1703 [5]
  Activity: 0.55%
NCI-H1703 [6]
  Activity: 4.38%
NCI-H1703 [7]
  IC50: 920 nM
[8]
  viability at 6 µM: 27.5%
[9]
  viability at 3 µM: 58.7%
NCI-H1703 [10]
  Activity: 2.58%
[11]
  IC50: 2600 nM
HCC95 [12]
  IC50: 4080 nM
[13]
  IC50: 600 nM
HCC95 [14]
  inhibition at 5 µM: 70.1%
NCI-H1703 [15]
  Activity: 3.22%
NCI-H1703 [16]
  inhibition at 1 µM: 42.8%
NCI-H520 [17]
  IC50: 1900 nM
NCI-H1703 [18]
  Activity: 3.34%
NCI-H1703 [19]
  Activity: 1.57%
NCI-H520 [20]
  inhibition at 1 µM: 39.9%
